Test systems include M14 melanoma; MDA-MB-435; U251 CNS; OVCAR-3 ovarian; HCT-15 colon; BT-549 breast.
What all share (experiment): NCI anticancer screen, dose series, 48 h

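Protocol summary: plate cells (96-well), add compound at 5 concentrations, incubate 48 h, interpolate endpoints linearly. Definition used: TGI = concentration required for complete inhibition of growth.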

Take `C=CCN(CCN(CC=C)S(=O)(=O)c1ccc(C)cc1)S(=O)(=O)c1ccc(C)cc1`: the TGI in the assay on M14 melanoma, with MDA-MB-435, in the assay on U251 CNS, in the assay on OVCAR-3 ovarian and in the assay on HCT-15 colon was more than 100 µM throughout.
`O=C(C1OC1c1cccc([N+](=O)[O-])c1)C12CC3CC(CC(C3)C1)C2` (stereo unspecified): the TGI with M14 melanoma is 22.8 µM; in the assay on MDA-MB-435, 12.2 µM; with U251 CNS, 9.64 µM; in the assay with BT-549 breast, 12.6 µM; in the assay with OVCAR-3 ovarian, 12.5 µM; with HCT-15 colon, 14.7 µM.
For `C=CCCC(=O)C(=[N+]=[N-])C(=O)CCC(=O)c1ccccc1`, the TGI with M14 melanoma, with MDA-MB-435, with U251 CNS, in the assay with BT-549 breast, in the assay with OVCAR-3 ovarian and with HCT-15 colon was more than 10 µM each time.
With `C=CC[C@]1(C2=NC(C)(C)CO2)c2ccccc2-c2ccccc2[C@H]1C(C)=O`, the TGI with M14 melanoma is 21.7 µM; in the assay on MDA-MB-435, 14.7 µM; with U251 CNS it was 21.6 µM; with BT-549 breast, 37.1 µM; in the assay on OVCAR-3 ovarian, 9.08 µM; with HCT-15 colon it was 26.4 µM.
As for `C[C@H]1O[C@@H](C(C)(C)C)OC(=O)[C@@H]1C(OC(=O)c1ccccc1)c1cccc2ccccc12` (stereo partly specified), the TGI in the assay on M14 melanoma, in the assay on MDA-MB-435, in the assay on U251 CNS, in the assay on BT-549 breast, in the assay on OVCAR-3 ovarian and with HCT-15 colon was more than 100 µM each time.
For the compound `CCOC(=O)c1nc2cc(C(F)(F)F)ccc2nc1Oc1ccc(F)cc1`, the TGI in the assay with M14 melanoma, in the assay on MDA-MB-435, in the assay on U251 CNS, in the assay with BT-549 breast, in the assay on OVCAR-3 ovarian and with HCT-15 colon was more than 100 µM in each case.
`C=CCn1c(-c2ccc(Cl)cc2)csc1=Nc1ccccc1OC`: the TGI in the assay on M14 melanoma was more than 87.9 µM; in the assay with MDA-MB-435, more than 100 µM; in the assay with U251 CNS, more than 100 µM; in the assay on BT-549 breast, more than 100 µM; with OVCAR-3 ovarian, more than 100 µM; in the assay with HCT-15 colon it was more than 100 µM.
Regarding `O=c1c2c3c(sc2nc2n1N=CN(c1ccc(F)cc1)C2)CCCC3`, the TGI with M14 melanoma, in the assay on MDA-MB-435, with U251 CNS, in the assay on BT-549 breast, in the assay with OVCAR-3 ovarian and in the assay with HCT-15 colon was more than 100 µM each time.
For the compound `CCOC(=O)/C=C(/C(=O)OCC)n1ccc(=O)n(Cc2cnnn2CCCCOC(C)=O)c1=O`, the TGI in the assay on MDA-MB-435, in the assay on U251 CNS, in the assay with BT-549 breast and in the assay on OVCAR-3 ovarian was more than 100 µM each time.
With `C/C(=N\NC(N)=S)c1sc(-n2nc(-c3ccccc3)cc2-c2ccccc2)nc1C`, the TGI in the assay with M14 melanoma, in the assay with MDA-MB-435, with U251 CNS, in the assay on BT-549 breast, with OVCAR-3 ovarian and with HCT-15 colon was more than 100 µM in each case.
Take `CC(=O)c1c(O)n(-c2ccc(C)cc2)c(=O)c2c(N)n[nH]c12`: the TGI in the assay on M14 melanoma, in the assay on MDA-MB-435, in the assay with U251 CNS, with BT-549 breast, with OVCAR-3 ovarian and in the assay on HCT-15 colon was more than 100 µM each time.
With `Cc1cc(N(CCC#N)CCC#N)ccc1/C(N=Nc1ccc([N+](=O)[O-])cc1)=N\NC(=O)c1ccccc1`, the TGI in the assay with M14 melanoma, in the assay on MDA-MB-435, in the assay with U251 CNS, in the assay with BT-549 breast, in the assay with OVCAR-3 ovarian and in the assay with HCT-15 colon was more than 100 µM each time.
Take `O=C1NC(=Nc2ccccc2)C(=Nc2ccccc2)N1c1ccccc1`: the figures for the TGI in the assay on MDA-MB-435, in the assay with U251 CNS and in the assay with HCT-15 colon were 29.7 µM, 28.9 µM and 28.2 µM, respectively.
For `Cc1ccc(S(=O)(=O)NC(=O)NC(CCC(N)=O)C(=O)O)cc1` (stereo unspecified), the TGI in the assay with M14 melanoma, in the assay with U251 CNS, in the assay with BT-549 breast and with HCT-15 colon was more than 100 µM throughout.
For `Cc1cn(C2OC(CO)C(O)C2F)c(=O)[nH]c1=O` (stereo unspecified), the TGI in the assay on M14 melanoma, with MDA-MB-435, in the assay with U251 CNS, in the assay with BT-549 breast, with OVCAR-3 ovarian and in the assay on HCT-15 colon was more than 100 µM throughout.
For the compound `COC(=O)C1(O)C(c2ccccc2)NC2(C)CCCC21` (stereo unspecified), the TGI with M14 melanoma, in the assay with MDA-MB-435, in the assay with U251 CNS, with BT-549 breast and with HCT-15 colon was more than 100 µM in each case.
With `C/C(O[Si](C(C)C)(C(C)C)C(C)C)=C(\C)C(=O)N(C)c1ccccc1Cl`, the TGI in the assay with M14 melanoma, in the assay on MDA-MB-435, in the assay on U251 CNS, in the assay with BT-549 breast, in the assay with OVCAR-3 ovarian and in the assay with HCT-15 colon was more than 100 µM each time.
With `O=C1/C(=C/c2ccccc2)CCCc2ccccc21`, the TGI in the assay on M14 melanoma came to 41.4 µM; in the assay with MDA-MB-435, 38.9 µM; in the assay on U251 CNS it was 29.1 µM; with BT-549 breast, 36 µM; in the assay on OVCAR-3 ovarian, 35.2 µM; in the assay with HCT-15 colon it was 32.3 µM.
In the case of `C[n+]1cn(-c2nc3ccccc3nc2[N-]S(=O)(=O)c2ccccc2)c2ccccc21`, the TGI in the assay with M14 melanoma, with MDA-MB-435, with U251 CNS, in the assay on BT-549 breast, with OVCAR-3 ovarian and in the assay with HCT-15 colon was more than 100 µM each time.
As to `Cc1cc(NS(=O)(=O)c2ccc(Nc3c4ccccc4nc4c(C(=O)NCCO)cccc34)cc2)no1`, the TGI with M14 melanoma was 70 µM; in the assay on MDA-MB-435 it was more than 100 µM; in the assay on U251 CNS, more than 100 µM; in the assay with BT-549 breast, 40.3 µM; with OVCAR-3 ovarian it was more than 100 µM; with HCT-15 colon it was more than 100 µM.

For the origin of these results see PubChem BioAssay (NCI).
